Source: article PMC9324262, “Selective CDK9 Inhibition by Natural Compound Toyocamycin in Cancer Cells” (Cancers, 2022)
“Also recorded” adds a separate entry of the source.

Assays:
[1] = tested on: CMV promoter in YB5 cells; assay: DNA methylation by bisulfite pyrosequencing, CMV promoter; type: cell-based, human; details: 0.05–50 µM, 72 h
Source text: We analyzed DNA methylation levels on the CMV promoter region and LINE-1 repeated elements (as a marker of global DNA methylation level). After DNA extraction and bisulfite conversion, PCR amplification of regions of interest and pyrosequencing were achieved as previously described.

YB5 cells = assay: anchorage-dependent clonogenic assay; type: cell-based, human; details: 2 weeks drug-free
Protocol: Two hundred YB5 cells were seeded per well in 6-well plates. On the following day, YB5 cells were treated with toyocamycin for 24 h or 72 h. Decitabine (10–50 nM for 72 h) was used as a positive control for the loss of clonogenic potential. Drugs and media were replaced each day. After treatment, media was removed. YB5 cells were grown in drug-free media for 2 weeks to allow visible colony formation prior to colony staining (0.5% methylene blue in 50% methanol). YB5 colonies were counted manually.

RNA-Pol II Ser2-P = assay: Western blot, RNA Pol II and phospho-Pol II Ser2; type: cell-based, human; details: 6 h
Protocol: YB5 cells were harvested in 50 mM Tris-HCl, 1% NP-40, 1 mM EDTA, 1 mM EGTA, 0.25% sodium deoxycholate, 150 mM NaCl, 50 mM sodium fluoride, and 1X Complete protease cocktail (Roche, Basel, Switzerland) with 1 mM PMSF. The total protein concentration was measured in all samples by standard BCA protocol (Pierce-23225, Thermo Scientific, Waltham, MA, USA) to ensure that an equal amount of protein was added to each sample. Protein extracts were run on 12% SDS–PAGE precast gels (Bio-Rad, Hercules, CA, USA, 345-0118). Proteins were transferred to polyvinylidene difluoride (PVDF) membranes in 10 mmol/L CAPS (pH-11) containing 10% methanol and detected by using specific primary antibodies, horseradish peroxidase–conjugated secondary antibodies (GE Healthcare, Chicago, IL, USA), and an enhanced chemiluminescence reagent (Pierce). PVDF membranes were incubated with specific primary antibodies (actin—A5441, Sigma, St. Louis, MO, USA; HA-tagged—H9608, Sigma; FLAG-tagged—F3165, Sigma). FLAG- and HA-tagged CDK9 plasmids were a generous gift from Dr Bassel E. Sawaya (Temple University). For CDK9 target modulation, HCT116 colon cancer cells were treated with toyocamycin or known CDK9 inhibitor BAY1251152 (Selleckchem, Houston, TX, USA). Whole cell extracts were obtained by lysing cells with 25 mM Tris (pH 7.3) and 1% sodium dodecyl sulfate (SDS). After sonication, total protein concentrations were determined using Bradford protein assay. The following primary antibodies were used to investigate the effect of CDK9 inhibition: Pol II against the N-term region (sc-55492, Santa Cruz, Dallas, TX, USA), Pol II against the C-term region (39097, Active motif, Carlsbad, CA, USA), Pol II phospho CTD ser2 (14-9802-82, Invitrogen, Waltham, MA, USA), Rb (ab181616, Abcam, Cambridge, UK), Rb phospho T826 (ab133446, Abcam, Cambridge, UK), CDK9 (ab39098, Abcam, Cambridge, UK), and actin (ab1801, Abcam, Cambridge, UK). Images were acquired with an Image Quant LAS4000 device from GE Healthcare Life Sciences. Band intensity quantifications were calculated using ImageJ software, edition 1.53 [27].

CDK9 = assay: Western blot, CDK9 protein level; type: cell-based, human; details: HCT116, 50–500 nM, 6 h
Protocol: YB5 cells were harvested in 50 mM Tris-HCl, 1% NP-40, 1 mM EDTA, 1 mM EGTA, 0.25% sodium deoxycholate, 150 mM NaCl, 50 mM sodium fluoride, and 1X Complete protease cocktail (Roche, Basel, Switzerland) with 1 mM PMSF. The total protein concentration was measured in all samples by standard BCA protocol (Pierce-23225, Thermo Scientific, Waltham, MA, USA) to ensure that an equal amount of protein was added to each sample. Protein extracts were run on 12% SDS–PAGE precast gels (Bio-Rad, Hercules, CA, USA, 345-0118). Proteins were transferred to polyvinylidene difluoride (PVDF) membranes in 10 mmol/L CAPS (pH-11) containing 10% methanol and detected by using specific primary antibodies, horseradish peroxidase–conjugated secondary antibodies (GE Healthcare, Chicago, IL, USA), and an enhanced chemiluminescence reagent (Pierce). PVDF membranes were incubated with specific primary antibodies (actin—A5441, Sigma, St. Louis, MO, USA; HA-tagged—H9608, Sigma; FLAG-tagged—F3165, Sigma). FLAG- and HA-tagged CDK9 plasmids were a generous gift from Dr Bassel E. Sawaya (Temple University). […] After sonication, total protein concentrations were determined using Bradford protein assay. […] Band intensity quantifications were calculated using ImageJ software, edition 1.53 [27].

[2] = cell viability by Viacount, YB5; type: cell-based; details: human, YB5 colon cancer cells; 24 and 72 h, 50 nM to 50 µM, highest doses; read-out: cell viability relative to untreated cells
Protocol: (§1) Cell viability was measured in YB5 and HCT166 cells using Viacount (Luminex, Austin, TX, USA, 4000-0040) on a Guava flow cytometer (Millipore, Burlington, MA, USA). Colon cancer cells were grown in 96-well plates in the same conditions as in the drug screen and treated with toyocamycin and known CDK9 inhibitor BAY1251152 (Selleckchem, Houston, TX, USA). Cell culture media of each well was collected to harvest floating dead cells and kept aside for later. Cells were trypsinized (0.25% trypsin, Gibco, Waltham, MA, USA) for 5 min at 37 °C. Cell culture media of each well was added back to their corresponding wells to stop trypsinization and mixed thoroughly to obtain a single cell suspension. Viacount solution (Luminex, Austin, TX, USA, 4000-0040, 25 μL) was added to each well, and incubated (5 min at room temperature, in the dark) prior to cell viability analysis on the Guava flow cytometer.

[3] = cell viability by Viacount, HCT116; type: cell-based; details: human, HCT116 colon cancer cells; 24 and 72 h, 50 nM to 50 µM, highest doses; read-out: cell viability relative to untreated cells
Protocol: as §1

[4] = parameters: method as in PMID 5646857; details: cited from earlier work

Compound: N#Cc1cn([C@@H]2O[C@H](CO)[C@@H](O)[C@H]2O)c2ncnc(N)c12 [toyocamycin, 7-Deaza-7-cyanoadenosine]
- DNA methylation on CMV promoter [1]: no changes in DNA methylation
- colony formation (YB5 cells; 10 nM, 24 h treatment): completely abrogated colony formation; also recorded: full eradication of the clonogenic potential
- colony formation (YB5 cells; 10–50 nM, 72 h treatment): fully abolished colony formation
- RNA-Pol II ser 2 phosphorylation (RNA-Pol II Ser2-P; HCT116, 350–500 nM): significantly reduced
- RNA Pol II band intensity, Pol II C-terminal antibody (RNA-Pol II Ser2-P; HCT116, above 350 nM): reduced the RNA Pol II band intensity
- CDK9 levels (CDK9): did not change
- viability [2]: > 50%
- viability [3]: > 50%
- systemic toxic effects ([4]; 10–200 µg/kg for 5 days, intravenous infusion over 1–2 h, twenty-three cancer patients): No systemic toxic effects were observed
- local toxicity ([4]; patients receiving the highest doses, intravenous infusion): local toxicity at the site of injection (severe phlebitis)
